This note sets out measurements from patent US20240228494A1, “COMPOUNDS” (PATHIOS THERAPEUTICS LIMITED, priority 2021, published 2024).

pIC50: −log10 of the molar value.

In the first assay the target is human recombinant GPR65 (Homo sapiens, UniProt Q8IYL9). The assay can be described thus: Human GPR65 cAMP HTRF antagonist assay. Format: cell-based.
Chain of human recombinant GPR65 (Q8IYL9 whole entry): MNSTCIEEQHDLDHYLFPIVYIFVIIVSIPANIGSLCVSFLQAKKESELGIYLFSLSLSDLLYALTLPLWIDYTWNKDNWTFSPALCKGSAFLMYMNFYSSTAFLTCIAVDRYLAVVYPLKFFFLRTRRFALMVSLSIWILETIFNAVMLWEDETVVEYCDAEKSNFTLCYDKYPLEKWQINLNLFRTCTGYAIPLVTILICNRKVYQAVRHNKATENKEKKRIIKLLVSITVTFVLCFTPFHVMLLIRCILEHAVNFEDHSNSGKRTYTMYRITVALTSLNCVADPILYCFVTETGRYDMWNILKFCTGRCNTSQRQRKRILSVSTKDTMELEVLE
Conditions: not given
The source says:
In one preferred embodiment, the compound prevents the increase in cytoplasmic cAMP levels expected following GPR65 activation at acidic pH. This prevention of cAMP accumulation in turn prevents downstream signalling through ICER, as described above. The “Human GPR65 cyclic adenosine monophosphate (cAMP) Homogeneous Time Resolved Fluorescence (HTRF) antagonist assay”, or simply “cAMP assay”, as described in the accompanying examples, can be used to measure the potency of GPR65 modulators, which is expressed as the concentration of compound required to reduce the increase in cAMP concentration upon GPR65 activation by 50% (i.e. an IC50).
Human GPR65 Cyclic Adenosine Monophosphate (cAMP) Homogeneous Time Resolved Fluorescence (HTRF) Antagonist Assay Procedure
IC50 data was obtained by the following procedure:
1321N1 human astrocytoma cells stably expressing human recombinant GPR65 (1321N1-hrGPR65 cells, EuroscreenFast) were cultured according to the vendor's instructions.
Compounds were tested for their ability to antagonise GPR65, through measuring the concentration of cytoplasmic cAMP following treatment of the cells at a pH of 7.2 to activate GPR65 signalling and addition of the compound to be tested. The extent to which the expected rise in cAMP concentration upon GPR65 activation was suppressed by the added compound is indicative of its potency. The assay was carried out according to EuroscreenFast assay methodology as follows.
On the day of the assay, test compounds were added to 384-well, low volume, white microtiter plates by acoustic dispensing. KRH buffer (5 mM KCl, 1.25 mM MgSO4, 124 mM NaCl, 25 mM HEPES, 13.3 mM Glucose, 1.25 mM KH2PO4 and 1.45 mM CaCl2) was adjusted to pH 6.5, pH 7.6 and pH 8.4 by adding NaOH. 1321N1-hGPR65 cells were rapidly thawed and diluted in KRH, pH 7.6 prior to centrifugation at 300×g for 5 min and resuspension in assay buffer (KRH, pH 7.6, supplemented with 1 mM 3-isobutyl-1-methylxanthine (IBMX) and 200 μM ethylenediaminetetraacetic acid (EDTA)). Cells were added to assay plates at a density of 2,000 cells per well in a volume of 5 μl. Assay plates were briefly centrifuged at 100×g and then incubated at room temperature for 30 min. Cells were stimulated by the addition of 5 μL KRH, pH 6.5, to achieve an assay pH of 7.2, while control wells received 5 μl KRH, pH 8.4 to achieve an assay pH of 7.9. Assay plates were briefly centrifuged at 100×g and then incubated at room temperature for 30 min.
Accumulation of cAMP was detected by cAMP HTRF kit (Cisbio). d2-labeled cAMP and cryptate-labeled anti-cAMP antibody in Lysis and Detection Buffer (Cisbio) were added to assay plates, and the plates were incubated at room temperature for 1 h. HTRF measurements were performed using a Pherastar FSX instrument. Acceptor and donor emission signals were measured at 665 nm and 620 nm, respectively, and HTRF ratios were calculated as signal665 nm/signal620 nm×10^4. Data were normalised to high and low control values and fitted with 4-parameter logistic regression to determine hGPR65 IC50 values for the test compounds, which are shown in Table 1.
A general note: Time-resolved FRET reads energy transfer from a long-lived donor to a nearby acceptor.
With `Fc1cc(Cl)c(Cl)cc1NC(=S)N1[C@H]2CC[C@@H]1c1ccnc(F)c1C2` [Compound 3, (5R,8S)-N-(4,5-dichloro-2-fluorophenyl)-1-fluoro-6,7,8,9-tetrahydro-5H-5,8-epiminocyclo-hepta[c]pyridine-10-carbothioamide], the negative logarithm of the IC50 (pIC50) was over 6.30.
Still for that read-out and setting: then `N#C/N=C(/Nc1cc(Cl)c(Cl)cc1F)N1[C@H]2CC[C@@H]1c1ccnc(F)c1C2` [Compound 12, (5R,8S)-N′-cyano-N-(4,5-dichloro-2-fluorophenyl)-1-fluoro-6,7,8,9-tetrahydro-5H-5,8-epiminocyclohepta-[c]pyridine-10-carboximidamide], with over 6.30; and `O=C(C(=O)N1[C@H]2CC[C@@H]1c1ccnc(F)c1C2)c1ccc(Cl)c(Cl)c1` [Compound 13, 1-(3,4-Dichlorophenyl)-2-((5R,8S)-1-fluoro-6,7,8,9-tetrahydro-5H-5,8-epiminocyclohepta[c]pyridin-10-yl)ethane-1,2-dione], with 5.30 to 6.30.
In the case of `N#C/N=C(\Nc1ccc(Cl)c(Cl)c1)N1[C@H]2CC[C@@H]1c1ccnc(F)c1C2` [Compound 6, (5R,8S,)—N′-Cyano-N-(3,4-dichlorophenyl)-1-fluoro-6,7,8,9-tetrahydro-5H-5,8-epiminocyclohepta[c]pyridine-10-carboximidamide], the pIC50 is over 6.30.
Same read-out and setting: under `O=c1cc2c(c[nH]1)[C@H]1CC[C@@H](C2)N1C(=S)Nc1cc(Cl)c(C(F)(F)F)cc1F` [Compound 2, (6S,9R)-N-(5-Chloro-2-fluoro-4-(trifluoromethyl)phenyl)-3-oxo-3,5,6,7,8,9-hexahydro-2H-6,9-epiminocyclohepta[c]pyridine-10-carbothioamide] stands over 6.30; under `CO/N=C(\Nc1cc(Cl)c(Cl)cc1F)N1[C@H]2CC[C@@H]1c1ccnc(F)c1C2` [Compound 16, (5R,8S)—N-(4,5-dichloro-2-fluorophenyl)-1-fluoro-N′-methoxy-6,7,8,9-tetrahydro-5H-5,8-epiminocyclohepta[c]pyridine-10-carboximidamide], over 6.30.
Consider `N#C/N=C(/Nc1cc(C(F)(F)F)c(Cl)cc1F)N1[C@H]2CC[C@@H]1c1ccnc(F)c1C2` [Compound 11, (5R,8S)-N-(4-Chloro-2-fluoro-5-(trifluoromethyl)phenyl)-N′-cyano-1-fluoro-6,7,8,9-tetrahydro-5H-5,8-epimino-cyclohepta[c]pyridine-10-carboximidamide], for which the pIC50 is over 6.30.
For `Fc1cc(C(F)(F)F)c(Br)cc1NC(=S)N1[C@H]2CC[C@@H]1c1ccnc(F)c1C2` [Compound 1, (5R,8S)—N-(5-Bromo-2-fluoro-4-(trifluoromethyl)phenyl)-1-fluoro-6,7,8,9-tetrahydro-5H-5,8-epiminocyclohepta[c]pyridine-10-carbothioamide], the pIC50 is over 6.30.
On the same count and under the same terms, then `O=C(Oc1ccc(Cl)c(Cl)c1)N1C2CCC1c1cncnc1C2` (racemic) [Compound 10, 3,4-dichlorophenyl (±)-6,7,8,9-tetrahydro-5H-5,8-epiminocyclohepta-[d]pyrimidine-10-carboxylate], with 5.30 to 6.30.
With `S=C(Nc1ccc(Cl)c(Cl)c1)N1C2CCC1c1cncnc1C2` (racemic) [Compound 5, (±)-N-(3,4-dichlorophenyl)-6,7,8,9-tetrahydro-5H-5,8-epiminocyclo-hepta[d]pyrimidine-10-carbothioamide], the pIC50 was over 6.30.
Still for that read-out and setting: under `O/N=C(\Nc1cc(Cl)c(Cl)cc1F)N1[C@H]2CC[C@@H]1c1ccnc(F)c1C2` [Compound 15, (5R,8S)—N-(4,5-dichloro-2-fluorophenyl)-1-fluoro-N′-hydroxy-6,7,8,9-tetrahydro-5H-5,8-epiminocyclohepta[c]pyridine-10-carboximidamide] stands over 6.30; under `Fc1cc(C(F)(F)F)c(Cl)cc1NC(=S)N1[C@H]2CC[C@@H]1c1ccnc(F)c1C2` [Compound 4, (5R,8S)-N-(5-chloro-2-fluoro-4-(trifluoromethyl)phenyl)-1-fluoro-6,7,8,9-tetrahydro-5H-5,8-epiminocyclohepta[c]pyridine-10-carbothioamide], over 6.30.
On to `Fc1cc(Cl)c(Cl)cc1CN1[C@H]2CC[C@@H]1c1ccnc(F)c1C2` [Compound 9, (5R,8S)-10-(4,5-dichloro-2-fluorobenzyl)-1-fluoro-6,7,8,9-tetrahydro-5H-5,8-epiminocyclohepta[c]pyridine], for which the pIC50 is 5.30 to 6.30.

Still in this assay, the particulars now being: 1321N1-hrGPR65 cells, assay pH 7.2, suppression of cAMP rise; read-out: hGPR65 IC50.
As to `O=C(C(O)c1ccc(Cl)c(Cl)c1)N1[C@H]2CC[C@@H]1c1ccnc(F)c1C2` (single isomer, unassigned) [Compound 7], the pIC50 was under 5.30.
On the same count and under the same terms, under `O=C(Cc1ccc(Cl)c(Cl)c1)N1[C@H]2CC[C@@H]1c1ccnc(F)c1C2` [Compound 8, 2-(3,4-dichlorophenyl)-1-((5R,8S)-1-fluoro-6,7,8,9-tetrahydro-5H-5,8-epimino-cyclohepta[c]pyridin-10-yl)ethan-1-one] stands 5.30 to 6.30; under `N=C(Nc1cc(Cl)c(Cl)cc1F)N1[C@H]2CC[C@@H]1c1ccnc(F)c1C2` [Compound 17, (5R,8S)—N′-(4,5-dichloro-2-fluorophenyl)-1-fluoro-6,7,8,9-tetrahydro-5H-5,8-epiminocyclohepta[c]pyridine-10-carboximidamide], under 5.30.

As usually defined, the pIC50 is −log10 of the IC50, conventionally taken in molar units.
